Patent US20210393521A1, “PREPARATION OF A PHARMACEUTICAL COMPOSITION OF OLODATEROL, TIOTROPIUM BROMIDE AND BUDESONIDE” (priority 2020, published 2021)
≈ marks a conversion by molar mass, not a printed value.

Legend:
[1] = background statement; cited from earlier work
[2] = Solubility test of BD in SBECD and Tween 80 solutions; assay type: physicochemical
Procedure: Solubility test to investigate the solubilizing effect of SBECD and Tween 80 as solubilizers on BD, and to investigate the solubility of BD at different concentrations.
Investigation of the solubility of BD under different concentrations of SBECD: Weigh 0.1 g, 0.3 g, 0.5 g, and 1.0 g of […] into a 10 ml EP tube, add 10 ml of pure water, and shake until the […] is completely dissolved, then add excess BD (about 500 mg/100 mL), and wrap the EP tube in tin foil to protect from light. After protecting from light, place the EP tube on a shaker, shake for 24 hours, and centrifuge to collect the supernatant.

| SMILES | half-life [1] | maintains bronchiectatic activity for [1] [h] | BD Solubility ([2]; SBECD concentration 1%) [mg/100 ml] | BD Solubility ([2]; SBECD concentration 3%) [mg/100 ml] | BD Solubility ([2]; SBECD concentration 5%) [mg/100 ml] | BD Solubility ([2]; SBECD concentration 10%) [mg/100 ml] | BD Solubility ([2]; Tween 80 concentration 5 mg/100 ml) [mg/100 ml] | BD Solubility ([2]; Tween 80 concentration 10 mg/100 ml) [mg/100 ml] | BD Solubility ([2]; Tween 80 concentration 20 mg/100 ml) [mg/100 ml] | BD Solubility ([2]; Tween 80 concentration 1%) [mg/100 ml] | BD Solubility ([2]; Tween 80 concentration 3%) [mg/100 ml] | BD Solubility ([2]; Tween 80 concentration 5%) [mg/100 ml] | BD Solubility ([2]; Tween 80 concentration 10%) [mg/100 ml] | solubility at 24 h ([2]; Tween 80 solution in water, aqueous with cosolvent or surfactant or cyclodextrin, thermodynamic from solid, Tween 80 concentration 20 mg/100 ml) [µg/mL] |
| --- | --- | --- | --- | --- | --- | --- | --- | --- | --- | --- | --- | --- | --- | --- |
| COc1ccc(CC(C)(C)NC[C@H](O)c2cc(O)cc3c2OCC(=O)N3)cc1 [Olodaterol, 6-hydroxy-8-[(1R)-1-hydroxy-2-{[1-(4-methoxyphenyl)-2-methylpropan-2-yl]amino}ethyl]-3,4-dihydro-2H-1,4-benzoxazin-3-one] | more than 12 h | 24 |  |  |  |  |  |  |  |  |  |  |  |  |
| CCCC1O[C@@H]2C[C@H]3[C@@H]4CCC5=CC(=O)C=C[C@]5(C)[C@H]4[C@@H](O)C[C@]3(C)[C@]2(C(=O)CO)O1 (stereo partly drawn) [BD, 11β,21-dihydroxy-16α,17α-(butylidenebis(oxy))pregna-1,4-diene-3,20-dione] |  |  | 16.91 | 40.28 | 61.91 | 81.3 | 0.224 | 0.256 | 0.292 | 16.54 | 38.88 | 64.84 | 118.79 | 2.92 (≈ 6.78 µM) |
